Results taken from patent publication US20040063681A1, “Methods for using gold (III) complexes as anti-tumor and anti-HIV agents” (priority 2002, published 2004).
pIC50: −log10 of the molar value.

How the values were obtained:
[1] = system: Human Oral Epidermoid Carcinoma (KB-3-1); assay: MTT cytotoxicity, KB-3-1; format: cell-based; details: for pIC50: MTT, growth inhibition
Text: (§1) Human promyelocytic leukemia (HL-60), human hepatocellular carcinoma (HepG2), Human cervix epitheloid carcinoma cells (HeLa) and human oral epidermoid carcinoma cells (KB-3-1), were obtained from American Type Culture Collection (ATCC) (Rockville, Md.). […] Cell culture flasks and 96 well microtitre plates were from Nalge Nunc hit. Culture medium, other medium constituents and phosphate buffered saline (PBS) were obtained from Gibco BRL (Rockville, Md.). Cell Proliferation Kit I (MTT) was purchased from Roche (Mannheim, Germany).

[2] = system: Human Promyelocytic Leukemia (HL-60); assay: MTT cytotoxicity, HL-60; format: cell-based; details: growth inhibition
Text: (§2) Human promyelocytic leukemia (HL-60), human hepatocellular carcinoma (HepG2), Human cervix epitheloid carcinoma cells (HeLa) and human oral epidermoid carcinoma cells (KB-3-1), were obtained from American Type Culture Collection (ATCC) (Rockville, Md.). The multi-drug-resistant variant KB-V1 cell line was obtained by stepwise selections for vinblastine resistance as described by Shen et al., J. Biol. Chem. 261:7762-7770 (1986)], and was generously provided by Dr Michael Gottesman (NIH, Bethesda, Md.). Human nasopharyngeal carcinoma cells (SUNE1 and its cisplatin resistance variant, CNE1) were derived from poorly differentiated NPC in Chinese patients as described by Gu et al., Chin. J. Cancer 2:270-272 (1983), and were generously provided by Dr S. W. Tsao (The University of Hong Kong, Hong Kong, PRC). Cell culture flasks and 96 well microtitre plates were from Nalge Nunc hit. Culture medium, other medium constituents and phosphate buffered saline (PBS) were obtained from Gibco BRL (Rockville, Md.). Cell Proliferation Kit I (MTT) was purchased from Roche (Mannheim, Germany).
(§3) The anti-cancer activities of the gold(III) porphyrin complexes were evaluated toward some established human cancer cell lines: promyelocytic leukemia (HL-60), hepatocellular carcinoma (HepG2), cervix epitheloid carcinoma (HeLa), epidermoid carcinoma (KB-3-1) and its multi-drug resistant variant (KB-V1), nasopharyngeal carcinoma (SUNE1) and its cisplatin-resistant variant (CNE1). The experiments were carried out by following the MTT procedure (see Mosmann et al., J. Immunol. Methods 65:55-63 (1983). The IC50 values of the gold(III) porphyrin complexes together with that of cisplatin, and KAuCl4 are provided in Table 4a; and the IC50 values of the gold(III) Schiff-base and bis(pyridyl)carboxamide complexes are shown in Table 4b. The cytotoxicity profiles of some selected gold(III) porphyrin complexes toward SUNE1 and its cisplatin-resistant variant CNE1 are also shown in FIG. 7.

[3] = system: Human Hepatocellular Carcinoma (HepG2); assay: MTT cytotoxicity, HepG2; format: cell-based; details: growth inhibition
Text: as §2, §3

[4] = system: Human Nasopharyngeal Carcinoma (SUNE1); assay: MTT cytotoxicity, SUNE1; format: cell-based; details: for pIC50: MTT, growth inhibition
Text: as §1

[5] = system: Human Cervix Epitheloid Carcinoma (HeLa); assay: MTT cytotoxicity, HeLa; format: cell-based; details: for pIC50: MTT, growth inhibition
Text: as §1

[6] = system: Human Oral Epidermoid Carcinoma (multi-drug resistance, KB-V-1); assay: MTT cytotoxicity, KB-V-1; format: cell-based; details: for pIC50: MTT, growth inhibition, multi-drug resistant
Text: as §2
The anti-cancer activities of the gold(III) porphyrin complexes were evaluated toward some established human cancer cell lines: promyelocytic leukemia (HL-60), hepatocellular carcinoma (HepG2), cervix epitheloid carcinoma (HeLa), epidermoid carcinoma (KB-3-1) and its multi-drug resistant variant (KB-V1), nasopharyngeal carcinoma (SUNE1) and its cisplatin-resistant variant (CNE1).

[7] = system: Human Nasopharyngeal Carcinoma (cisplatin resistance, CNE1); assay: MTT cytotoxicity, CNE1; format: cell-based; details: for pIC50: MTT, growth inhibition, cisplatin resistant
Text: as §1

[8] = target: T1, HIV-1 reverse transcriptase (Human immunodeficiency virus type 1 group M subtype B, UniProt P04585); assay: HIV-1 reverse transcriptase activity, ELISA method; format: biochemical; details: for HIV-1 RT inhibition: drug concentration fixed at 6 μM
T1 construct: treatment of HIV-1 RT in Lysis buffer (2 ng, 128.7 μL) with Complex 1j
Protocol: HIV-1 reverse transcriptase activities were measured by an ELISA method (see Eberle et al, J. Virol. Methods, 40:347-356 (1992) performed by incubating the enzyme with digoxigenin-labeled deoxyuridin-5′-triphosphate (dUTP) and the biotin-labeled analogue during reverse transcription starting from the template/primer hybrid poly(A)•oligo(dT)15. After reverse transcription, the newly synthesized DNA was immobilized onto streptavidin-coated ELISA wells, and the incorporation of the dioxigenin-labeled dUTP was assayed by chemiluminescence method. For example, treatment of HIV-1 RT in Lysis buffer (2 ng, 128.7 μL) with Complex 1j (1.3 μL of […] stock solution) dissolved in TBS at 37° C. produced significant RT activity inhibition (˜95%) after 30 min incubation.

[9] = Electrochemical measurements (cyclic voltammetry); format: physicochemical
Protocol: Electrochemical measurements. Electrochemical measurements were performed at room temperature after purging with nitrogen using 0.1 M tetrabutylammonium hexafluorophosphate (TBAP)/acetonitrile as supporting electrolyte. The working electrode was a glassy carbon (Atomergic Chemetal V25, geometric area of 0.35 cm^2) electrode and the counter electrode was platinum gauze. A nonaqueous Ag/AgNO3 (0.1 M in acetonitrile) reference electrode was contained in a separate compartment connected to the test solution via fine sintered glass disks. The ferrocenium/ferrocene couple was used as the internal standard. The redox properties of the gold(III) porphyrin complexes in non-aqueous medium (CH2Cl2 with 0.1 M nBu4NPF6) have been studied by cyclic voltammetry with glassy carbon and platinum as the working and counter electrodes, respectively. […] The effect of para-substitution on the electrochemical potentials has been examined by Hammett correlation analysis.

[10] = cyclic voltammetry, 0.1 M nBu4NPF6, glassy carbon, vs Cp2Fe^+/0

Structure (SMILES)	IC50 ratio [cisplatin/gold (III) porphyrin complexes] KB-3-1 [1]	pIC50 [1]	pIC50 [2]	pIC50 [3]	IC50 ratio [cisplatin/gold (III) porphyrin complexes] SUNE1 [4]	pIC50 [4]	IC50 ratio [cisplatin/gold (III) porphyrin complexes] HeLa [5]	pIC50 [5]	IC50 ratio [cisplatin/gold (III) porphyrin complexes] KB-V1 [6]	pIC50 [6]	IC50 ratio [cisplatin/gold (III) porphyrin complexes] CNE1 [7]	pIC50 [7]	HIV-1 RT inhibition [8]	Couple I (first reduction couple) [9, 10]	Couple II (second reduction couple) [9, 10]	ΔE1o (E^0Y − E^0H), couple I ([9]; relative to Y=H (Complex 1a))	ΔE2^0 (E^0Y − E^0H), couple II ([9]; relative to Y=H (Complex 1a))	HIV-1 RT inhibition activity compared with the corresponding metal complex (1j, 1k) ([8]; free-base porphyrins)
COc1cc(-c2c3nc(c(-c4cc(OC)c(OC)c(OC)c4)c4ccc([n-]4)c(-c4cc(OC)c(OC)c(OC)c4)c4nc(c(-c5cc(OC)c(OC)c(OC)c5)c5ccc2[n-]5)C=C4)C=C3)cc(OC)c1OC.[Au+3].[Cl-] [Complex 1f]	15.1	6.06	6.13	5.74	18.5	6.17	16.5	6.17	5.62	6.15	55.9	6.14						
[Au+].[Cl-].c1ccc(P(c2ccccc2)c2ccccc2)cc1 [[(Ph3P)Au^ICl]]													43%					
C[n+]1ccc(-c2c3nc(c(-c4cc[n+](C)cc4)c4ccc([nH]4)c(-c4cc[n+](C)cc4)c4nc(c(-c5cc[n+](C)cc5)c5ccc2[nH]5)C=C4)C=C3)cc1.[Cl-].[Cl-].[Cl-].[Cl-].[Zn] [[Zn^II(TMPyP)]Cl4]													32%					
N.N.[Cl][Pt][Cl] [Pt(NH3)2Cl2, reference compound]		4.88	4.77	4.87		4.90		4.95		4.99		4.39						
Brc1ccc(-c2c3nc(c(-c4ccc(Br)cc4)c4ccc([n-]4)c(-c4ccc(Br)cc4)c4nc(c(-c5ccc(Br)cc5)c5ccc2[n-]5)C=C4)C=C3)cc1.[Au+3].[Cl-] [Complex 1d]	10.23	5.89	5.95	5.92	17.0	6.13	12.6	6.05	8.96	6.19	41.6	6.01		−0.97 V	−1.45 V	+0.03 V	+0.03 V	
O=S(=O)(O)c1ccc(-c2c3nc(c(-c4ccc(S(=O)(=O)O)cc4)c4ccc([nH]4)c(-c4ccc(S(=O)(=O)O)cc4)c4nc(c(-c5ccc(S(=O)(=O)O)cc5)c5ccc2[nH]5)C=C4)C=C3)cc1 [[H2TPPS]^4−, meso-tetrakis(4-sulfonatophenyl)porphyrin]																		substantially lower HIV-1 RT inhibition activities
